# Laboratory results as given in US20150352076A1, “MOLECULARLY TARGETED COMBINATION DRUG FOR TUMOR TREATMENT AND PREVENTION” (ONCOLYS BIOPHARMA INC., priority 2013, published 2015).
# Residues, ends and D or L forms follow the SMILES beside them. *: point of attachment. Cbz = O=C(OCc1ccccc1)*; CH2F = FC*
# Columns and labels:
# Assay type in all cases: cell-based, human
# [1] = tested on: 786-O cells; test: Analysis of apoptosis (sub-G1 fraction, flow cytometry); conditions: for effect of combined use with OBP-801 (summary statement): PI3K inhibitor used in combination with OBP-801, all five tested in 786-O cells; for induction of apoptosis (sub-G1), treatment alone: 48 hours and 72 hours
# Description: (§1) Cells were treated for 24 hours, 48 hours, or 72 hours at respective concentrations with or without addition of OBP-801 and/or with addition of LY294002, BKM120, GDC-0941, BEZ235, BYL719, or CH5132799, following which cells were harvested. The cells were permeabilized with 0.1% Triton-X100, following which the nuclei were stained with propidium iodide (PI). DNA content was measured using a FACSCalibur™ flow cytometer (Becton-Dickinson, Franklin Lakes, N.J., USA), and was analyzed with ModFit LT™ (Verity Software House, Topsham, Me., USA) and the Cell Quest™ software package (Becton-Dickinson).
# [2] = tested on: HEC-1-A cells; test: Analysis of cell cycle and apoptosis (sub-G1 fraction, flow cytometry) with combination index; conditions: for effect on tumor cell cycle progression: used alone, OBP-801 4 nM, LY294002 12.5 μM, 24 hours to 72 hours
# Description: as §1
# Combination index (CI) was calculated using CalcuSyn software (Biosoft, UK) based on the method of Chou and Talalay. When CI<1, it is determined that the effect is synergistic; i.e., greater than the expected additive effect. When CI=1, it is determined that the effect is additive; when CI>1, it is determined that the effect is antagonistic.
# [3] = tested on: HEC-1-A cells; test: Cell viability testing (Cell Counting Kit-8), cell growth inhibition
# Description: (§2) HEC-1-A cells derived from the human type 2 endometrial carcinoma cell line were cultured under conditions of 37° C. and 5% CO2 in RPMI medium to which 10% FBS had been added. Ishikawa human endometrial carcinoma cells were cultured under conditions of 37° C. and 5% CO2 in DMEM medium to which 10% FBS had been added. Human renal cell carcinoma cell line 786-O cells were cultured under conditions of 37° C. and 5% CO2 in RPMI 1640 medium to which 10% FBS, 2 mM glutamine, 100 U/mL penicillin, and 100 μg/mL streptomycin had been added. Human renal cell carcinoma cell line ACHN cells were cultured under conditions of 37° C. and 5% CO2 in DMEM medium to which 10% FBS, 4 mM glutamine, 100 U/mL penicillin, and 100 μg/mL streptomycin had been added. Human lymphoma cell line SU-DHL-6 cells were cultured under conditions of 37° C. and 5% CO2 in RPMI 1640 medium to which 10% FBS, 2 mM glutamine, 100 U/mL penicillin, and 100 μg/mL streptomycin had been added. Human breast cancer cell line MDA-MB-231 cells were cultured under conditions of 37° C. and 5% CO2 in RPMI 1640 medium to which 10% FBS, 2 mM glutamine, 100 U/mL penicillin, and 100 μg/mL streptomycin had been added.
# (§3) Cell viability was determined by carrying out measurements at a wavelength of 450 nm with a Viento multi-well spectrophotometer (DS Pharma Biomedical, Japan) using a Cell Counting Kit-8 (Dojindo Laboratories, Japan).
# [4] = tested on: phosphorylated Akt; test: Western blot analysis of phosphorylated Akt in HEC-1-A cells
# Description: (§4) Cells were lysed with lysis solution (50 mM Tris-HCl, 1% SDS, 2 μg/mL leupeptin, 2 μg/mL aprotinin, 0.1% 2-mercaptoethanol, and 1 mM phenylmethyl sulfonyl fluoride). Protein extract was loaded onto a polyacrylamide gel, subjected to electrophoresis, and transferred to a nitrocellulose membrane. Blots were blocked in blocking solution (5% skim milk/TBST) for 1 hour at room temperature, and incubated with appropriate primary antibody for 1 hour at room temperature. Signal was detected with an ECL™ Western Blot Analysis System (GE Healthcare, Piscataway, N.J., USA) or a Chemi-Lumi One chemiluminescent detection kit (Nacalai Tesque, Inc., Japan). […]
# [5] = tested on: 786-O cells; test: Cell viability testing, cell growth inhibition; conditions: used alone
# Description: as §2, §3
# [6] = tested on: ACHN cells; test: Cell viability testing, cell growth inhibition; conditions: used alone
# Description: as §2, §3
# [7] = tested on: Ishikawa cells; test: Cell viability testing, cell growth inhibition; conditions: used alone
# Description: as §2, §3
# [8] = tested on: HEC-1-A cells; test: Colony formation assay
# Description: Cells were seeded at a density of 200 cells per well in 6-well plates. After culturing these for 24 hours, treatment was carried out for 48 hours at respective concentrations with or without addition of OBP-801 and/or with addition of LY294002. These were then cultured in growth medium for 10 days, and the number of viable colonies was counted.
# [9] = tested on: caspase-3, caspase-8 and caspase-9; test: Western blot analysis of caspase-3, caspase-8 and caspase-9 cleavage in 786-O cells
# Description: as §4
# [10] = tested on: caspases, Bim; test: Western blot analysis of caspase cleavage and Bim in HEC-1-A cells; conditions: OBP-801 and LY294002 plus NAC
# Description: as §4
# [11] = tested on: 786-O cells; test: Measurement of intracellular reactive oxygen species (CM-H2DCFDA); conditions: OBP-801 and LY294002 plus NAC
# Description: (§5) Cells were pretreated for 48 h with or without addition of OBP-801 and/or with addition of LY294002, and were thereafter treated with 10 μM 5-(and-6)-chloromethyl-2′,7′-dichlorodihydrofluorescein diacetate, acetyl ester (CM-H2DCFDA) (Invitrogen, Carlsbad, Calif., USA). After 30 minutes of incubation with 10 μM CM-H2DCFDA, cells were collected by trypsinization, were washed with PBS, and were analyzed by flow cytometry using FACSCalibur™ and CellQuest™ software (Becton-Dickinson).
# [12] = tested on: HEC-1-A cells; test: as above; conditions: OBP-801 and LY294002 plus NAC
# Description: as §5
# [13] = tested on: survivin and XIAP; test: Western blot analysis of survivin and XIAP in 786-O cells; conditions: OBP-801 and LY294002 plus NAC
# Description: as §4
# [14] = tested on: acetylated histone H4; test: Western blot analysis of acetylated histone H4 in HEC-1-A cells
# Description: as §4
compound,measurement,setting,value
Cn1c(=O)n(-c2ccc(C(C)(C)C#N)cc2)c2c3cc(-c4cnc5ccccc5c4)ccc3ncc21 [BEZ235],effect of combined use with OBP-801 (summary statement),[1],synergistic tumor therapeutic/prophylactic effect
Nc1cc(C(F)(F)F)c(-c2cc(N3CCOCC3)nc(N3CCOCC3)n2)cn1 [BKM120],effect of combined use with OBP-801 (summary statement),[1],synergistic tumor therapeutic/prophylactic effect
Cc1nc(NC(=O)N2CCC[C@H]2C(N)=O)sc1-c1ccnc(C(C)(C)C(F)(F)F)c1 [BYL719],effect of combined use with OBP-801 (summary statement),[1],synergistic tumor therapeutic/prophylactic effect
CS(=O)(=O)N1CCc2c(-c3cnc(N)nc3)nc(N3CCOCC3)nc21 [CH5132799],effect of combined use with OBP-801 (summary statement),[1],synergistic tumor therapeutic/prophylactic effect
CS(=O)(=O)N1CCN(Cc2cc3nc(-c4cccc5[nH]ncc45)nc(N4CCOCC4)c3s2)CC1 [GDC-0941],effect of combined use with OBP-801 (summary statement),[1],synergistic tumor therapeutic/prophylactic effect
"O=c1cc(N2CCOCC2)oc2c(-c3ccccc3)cccc12 [LY294002, 2-(4-morpholinyl)-8-phenyl-4H-1-benzopyran-4-one]",effect on tumor cell cycle progression,[2],G1-phase arrest
same,concentrations causing inhibition of cell growth,[3]; LY294002 alone,≥ 6.3 µM
same,concentrations causing decrease in phosphorylated Akt,[4],≥ 6.3 µM
same,"induction of apoptosis (sub-G1), treatment alone",[1]; 786-O cells,only slight induction of apoptosis
same,growth of 786-O cells,[5],suppressed growth of 786-O cells or ACHN cells in concentration-dependent fashion
same,growth of ACHN cells,[6],suppressed growth of 786-O cells or ACHN cells in concentration-dependent fashion
same,growth of Ishikawa cells,[7],suppressed growth of Ishikawa cells in concentration-dependent fashion
same,number of colonies formed,"[8]; LY294002 alone, even at a concentration as high as 12.5 μM",no reduction in the number of colonies formed was observed
same,"cleavage of caspase-3, caspase-8 and caspase-9",[9],did not induce cleavage of the foregoing caspases
"CC(=O)N[C@@H](CS)C(=O)O [NAC, N-acetyl-L-cysteine]",effect on induction of apoptosis resulting from combined treatment,"[2]; HEC-1-A cells, OBP-801 and LY294002 plus NAC",almost completely suppressed
same,effect on caspase activation and Bim induction due to combined treatment,[10],inhibited the caspase activation and Bim induction
same,effect on induction of intracellular reactive oxygen species due to combined treatment,[11],blocked the induction of intracellular reactive oxygen species
same,effect on increase of intracellular reactive oxygen species caused by combined treatment,[12],blocked
same,effect on induction of apoptosis due to combined treatment,"[1]; 786-O cells, OBP-801 and LY294002 plus NAC",blocked the induction of apoptosis
same,effect on downregulation of survivin and XIAP by combined treatment,[13],restored
COC(=O)C[C@H](NC(=O)[C@H](C)NC(=O)[C@@H](NC(=O)OCc1ccccc1)C(C)C)C(=O)CF [zVAD-fmk] (Cbz-Val-Ala-Asp(OMe)-CH2F),effect on apoptosis induced by combined use of OBP-801 and PI3K inhibitor,"[2]; HEC-1-A cells, pan-caspase inhibitor added",almost completely suppressed
same,effect on apoptosis induced by combined treatment with OBP-801 and LY294002,"[1]; 786-O cells, pan-caspase inhibitor added",effectively suppressed the apoptosis
spiruchostatin A [OBP-801],effect on tumor cell cycle progression,[2],G2/M-phase arrest
same,concentrations causing inhibition of cell growth,[3]; OBP-801 alone,≥ 0.0031 µM
same,concentrations causing increase of acetylated histone H4,[14],≥ 1.6 nM
same,"induction of apoptosis (sub-G1), treatment alone",[1]; 786-O cells,only slight induction of apoptosis
same,growth of 786-O cells,[5],suppressed growth of 786-O cells or ACHN cells in concentration-dependent fashion
same,growth of ACHN cells,[6],suppressed growth of 786-O cells or ACHN cells in concentration-dependent fashion
same,growth of Ishikawa cells,[7],suppressed growth of Ishikawa cells in concentration-dependent fashion
same,number of colonies formed,"[8]; OBP-801 alone at 4 nM, 48 hours treatment, 10 days culture",60%
same,"cleavage of caspase-3, caspase-8 and caspase-9",[9],did not induce cleavage of the foregoing caspases
